Columns and labels:
[1] = system: WM-266-4; experiment: Monolayer growth inhibition assay (MTT/MTS), WM-266-4; format: cell-based; conditions: WM-266-4 melanoma cell line, treated for 3 days
Description: (§1) The MTT is a colorimetric assay to determine the cell proliferation rate. The yellow tetrazolium MTT (3-(4,5-dimethylthiazolyl-2)-2,5-diphenyltetrazolium bromide) is reduced by metabolically active cells, in part by the action of dehydrogenase enzymes, to generate reducing equivalents, such as NADH and NADPH. The resulting intracellular purple formazan can be solubilized and quantified by spectrophotometric means. The signals produced is directly proportional to the cell numbers. Describing the MTT assay in detail, experiments were done using six-point or nine-point drug titrations in multi-well tissue culture dishes, with outer rows left empty. Cells were suspended in complete media at densities of between 10^3 and 10^4 cell/mL, respectively, and added per well. The appropriate medium (200 μL) was then added. […] This plate was incubated at 37° C. for 4 hours and the optical density was measured on a Molecular Devices Thermomax at 490 nm using the Softmax program. […]
(§2) Compound addition began 24 hours after seeding, the same time as the T0 determination. […] The MTS solution was added (as for the To plate) and read 4 hours later. […]
(§3) A panel of Melanoma cell lines were treated with DMSO vehicle control or varying concentrations of LBH589 for 3 days. Cell proliferation was measured on the day of cell plating and on the third day post-treatment. IC50 and LD50 values were calculated as described above.

[2] = system: A2058; experiment: Monolayer growth inhibition assay (MTT/MTS), A2058; format: cell-based; conditions: A2058 melanoma cell line, treated for 3 days
Description: as §1, §2, §3

[3] = system: MeWo; experiment: Monolayer growth inhibition assay (MTT/MTS), MeWo; format: cell-based; conditions: MeWo melanoma cell line, treated for 3 days
Description: as §1, §2, §3

[4] = system: panel of Melanoma cell lines
Description: as §1, §2, §3

[5] = system: SK-MEL-28; experiment: Monolayer growth inhibition assay (MTT/MTS), SK-MEL-28; format: cell-based; conditions: SK-MEL-28 melanoma cell line, treated for 3 days
Description: as §1, §2, §3

[6] = system: RPMI-7951; experiment: Monolayer growth inhibition assay (MTT/MTS), RPMI-7951; format: cell-based; conditions: RPMI-7951 melanoma cell line, treated for 3 days
Description: as §1, §2, §3

[7] = system: A375; experiment: Monolayer growth inhibition assay (MTT/MTS), A375; format: cell-based; conditions: A375 melanoma cell line, treated for 3 days
Description: as §1, §2, §3

[8] = system: SK-MEL-5; experiment: Monolayer growth inhibition assay (MTT/MTS), SK-MEL-5; format: cell-based; conditions: SK-MEL-5 melanoma cell line, treated for 3 days
Description: as §1, §2, §3

[9] = system: G-361; experiment: Monolayer growth inhibition assay (MTT/MTS), G-361; format: cell-based; conditions: G-361 melanoma cell line, treated for 3 days
Description: as §1, §2, §3

[10] = Homo sapiens, 72 h, read-out: IC50 [nM] Measure of Cell Growth Inhibition
[11] = concentration reducing cell number to 50% of original inoculum

Compound: Cc1[nH]c2ccccc2c1CCNCc1ccc(/C=C/C(=O)NO)cc1 [LBH589, N-hydroxy-3-[4-[[[2-(2-methyl-1H-indol-3-yl)-ethyl]-amino]methyl]phenyl]-2E-2-propenamide]
- IC50 [1, 10]: 26.4 nM
- LD50 (nM) Measure of Cell Kill [1, 11]: 73.05 nM
- LD50 (nM) Measure of Cell Kill [2, 11]: 58.96 nM
- IC50 [2, 10]: 17.8 nM
- IC50 [3, 10]: 34.5 nM
- LD50 (nM) Measure of Cell Kill [3, 11]: 157.64 nM
- LD50, cytotoxic effect ([4]; 3 days): < 160 nM
- IC50 values, anti-proliferative effect ([4]; all 8 melanoma cell lines examined, treated for 3 days): low nanomolar
- IC50 [5, 10]: 43.1 nM
- LD50 (nM) Measure of Cell Kill [5, 11]: 129.33 nM
- IC50 [6, 10]: 27.6 nM
- LD50 (nM) Measure of Cell Kill [6, 11]: 71.63 nM
- LD50 (nM) Measure of Cell Kill [7, 11]: 77.83 nM
- IC50 ([7]; Homo sapiens, A-375, 72 h, read-out: IC50 [nM] Measure of Cell Growth Inhibition): 32.7 nM
- IC50 [8, 10]: 6.15 nM
- LD50 (nM) Measure of Cell Kill [8, 11]: 54.95 nM
- LD50 (nM) Measure of Cell Kill [9, 11]: 51.44 nM
- IC50 [9, 10]: 8.09 nM
